US8637252B2, “Methods and compositions for determining altered susceptibility of HIV-1 to anti-HIV drugs” (Monogram Biosciences, Inc., priority 2011, dated 2014)

Tests used:
Format in all cases: cell-based
[1] = test system: HIV-1 NL4-3 and IIIB site-directed integrase mutants; experiment: phenotypic INSTI susceptibility test, site-directed integrase mutants in NL4-3 or IIIB background (RHIN segment assay)
Method: To assess the effects of mutations at positions 97 and 156 of integrase, two site-directed mutants (T97A and K156N) were constructed in two different wild-type (NL4-3 and IIIB) genetic backgrounds. The INSTI susceptibility phenotypes of these mutants to diketo acid 1, diketo acid 2, and L-870,810 were then determined using the RHIN segment assay according to Example 2.
In particular, site-directed mutants were constructed in an NL4-3 or IIIB background comprising either T97A or K156N. The FC in susceptibility to diketo acid 1, diketo acid 2, and L-870,810 for each mutant is shown as FIG. 18.
Next, a series of site-directed mutants were constructed to assess the effects of combinations of T97A and K156N with previously recognized INSTI resistance mutations. In particular, mutants comprising T97A, K156N, and the combination of T97A and K156N were made in combination with three constellations of previously recognized INSI mutations (V721, F121Y, and T125K; N155S; and T66I and M1541). Each of these combinations was made in a IIIB background. The effects of these combinations on diketo acid 1, diketo acid 2, and L-870,810 susceptibility were tested with the RHIN segment assay according to the method described in Example 2.

[2] = test system: HIV-1 (patient-derived RHIN segment); experiment: phenotypic drug resistance test, resistance test vectors with patient-derived RHIN segment, luciferase, 293 cells
Excerpt: Patient-derived segment(s) corresponding to the entire pol gene, encoding HIV protease, reverse transcriptase (including RNAse H), and integrase (hereinafter “POL”), the portion of pol encoding amino acids 1-305 of reverse transcriptase (hereinafter “PR-RT”), the portion of pol encoding amino acids 319-440 of reverse transcriptase (including RNAse H), and integrase (hereinafter “RHIN”), were amplified by the reverse transcription-polymerase chain reaction method (RT-PCR) using viral RNA isolated from viral particles present in the plasma or serum of HIV-infected individuals as described below. The portion of pol encoding protease, amino acids 1-531 of reverse transcriptase (including RNase H) (hereinafter “PRRT-RH”), or the portion of pol encoding protease, reverse transcriptase (including RNAse H) and integrase (hereinafter “PRRT-RHIN”), were assembled from amplicons described above by standard recombinant DNA techniques involving a KpnI restriction site at amino acid 400 or a Pin A1 site at amino acid 315.
Virus was pelleted by centrifugation at 20,400×g for 60 min from plasma (typically, 1 ml) prepared from blood samples collected in evacuated tubes containing either EDTA, acid-citrate dextrose, or heparin as an anticoagulant. Virus particles were disrupted by resuspending the pellets in 200 [1.1 of lysis buffer (4 M guanidine thiocyanate, 0.1 M Tris HCl (pH 8.0), 0.5% sodium lauryl sarcosine, 1% dithiothreitol). RNA was extracted from viral lysates by using oligo(dT) linked to magnetic beads (Dynal, Oslo, Norway). Reverse transcription was performed with Superscript III (Invitrogen) at 50 degrees for 1 hour using primer 1.
From the resultant cDNA either POL or RHIN sequences were amplified using the Advantage High Fidelity PCR kit (BD Biosciences; Clontech). POL amplification products are made using forward Primer 3 containing an Apal site and reverse Primer 4 containing a Xho 1 site. RHIN amplification products are made using forward Primer 2 containing a P1NA1 site and reverse Primer 4 containing a Xho 1 site.
A retroviral vector designed to measure antiretroviral drug susceptibility was constructed by using an infectious molecular clone of HIV-1. The vector, referred to herein as an indicator gene viral vector (IGVV), is replication defective and contains a luciferase expression cassette inserted within a deleted region of the envelope (env) gene. The IGVV is described in U.S. Pat. No. 5,837,464 (International Publication Number WO 97/27319) which is hereby incorporated by reference in its entirety. This retroviral vector was further modified to allow insertion of either the entire pol gene (POL) or the portion of poi encoding amino acids 319-440 of reverse transcriptase, the RNase H portion of reverse transcriptase, and integrase (REIN) by engineering an Xho l restriction enzyme recognition site into vif. Prior to doing this, an Xho 1 site in nef was deleted. Resistance Test vectors (RTVs) were constructed by incorporating amplified POL or RHIN into the IGVV by using Apal and Xhol or PinAI and Xho 1 restriction sites respectively. RTVs were prepared as libraries (pools) in order to capture and preserve the pol or RHIN sequence heterogeneity of the virus in the patient. POL amplification products were digested with Apal and Xhol, purified by agarose gel electrophoresis, and ligated to ApaI- and Xhol-digested IGVV DNA. RHIN amplification products were digested with PinAI and Xho/, purified by agarose gel electrophoresis, and ligated to PinAI and Xhol-digested IGVV DNA. Ligation reactions were used to transform competent Escherichia coli (Invitrogen, Carlsbad, Calif.). An aliquot of each transformation was plated onto agar, and colony counts were used to estimate the number of patient-derived segments represented in each RTV library. RTV libraries that comprised less than 50 members are not considered representative of the patient virus. […]

[3] = test system: HIV-1 NL4-3 site-directed reverse transcriptase mutants; experiment: phenotypic drug resistance test, site-directed reverse transcriptase mutants in NL4-3 background (POL segment assay)
Method: Further, a site directed double mutant T3691/K103N was generated using conventional techniques and tested for resistance to an NNRTI using the methods described above.
To assess the effects of mutations at positions 348, 369, and 399, a series of site-directed mutants were constructed in an wild-type (NL4-3) background. The NNRTI susceptibility phenotypes of these mutants were then determined using the POL segment assay according to Example 2.
In particular, site-directed mutants were constructed in an NL4-3 background comprising N348I, T369I, E399D, or the combination of N3481 and T369I.
Next, a series of site-directed mutants were constructed to assess the effects of combinations of N3481, T369I, and E399D with previously recognized NNRTI resistance mutations. In particular, mutants comprising N348I, T369I, and E399D were made in combination with G190S, with K103N, and with the combination of K103R and V179D. The effects of these combinations on DLV, EFV, and NVP susceptibility were tested using the POL segment assay according to the method describe in Example 2. The results from these experiments are presented as FIG. 10.
To assess the specific effects of mutations at positions 348, 369, and 399, a series of site-directed mutants were constructed in an wild-type (NL4-3) background. The AZT susceptibility phenotype of these mutants were then determined with a POL segment assay according to Example 2.
In particular, site-directed mutants were constructed in an NL4-3 background comprising N348I, T3691, E399D, or the combination of N348I and T3691. The FC in AZT susceptibility for each mutant is shown as FIG. 13.

[4] = test system: HIV-1 patient-derived test vectors with site-directed reverse transcriptase mutations; experiment: phenotypic drug resistance test, site-directed reverse transcriptase mutants in patient backgrounds
Method: In addition, using conventional technique, the T369I mutation was introduced into a resistance test vector comprising PR-RT segment derived from patient sample 62, which comprises mutations A62V, Q102K, K103N, K122E, D123N, C162S, D177E, 1178L, M184V, T200A, Q207E, T215Y, P243S, V245Q, A272P and R277K in reverse transcriptase. Among these mutations, K103N correlates with resistance to a number of NNRTIs, including NVP. This patient sample was tested for resistance to an NNRTI using the methods described above.
(§1) To further analyze the effects of N348I, T369I, and E399D on NNRTI resistance, an additional series of site directed mutants was constructed in non-wild-type backgrounds. In particular, site-directed mutants comprising the N348I, T369I, or E399D mutation were constructed in POL-containing test vectors obtained from three different patient samples. Results from these experiments are presented as FIG. 11.
as §1, with “on AZT” for “on NNRTI”, “the N3481,” for “the N348I,”, “from two” for “from three”, “samples.” for “samples. Results from these experiments are presented as FIG. 11.”

| Compound | effect of mutation on resistance ([1]; T97A alone or with V72I/F121Y/T125K, N155S, or T66I/M154I, IIIB background) | effect of mutation on susceptibility ([1]; integrase K156N in NL4-3 and IIIB backgrounds) | effect of mutation on susceptibility ([1]; integrase T97A in NL4-3 and IIIB backgrounds) | FC in susceptibility relative to wild-type (NL4-3) ([2]; nine of 128 patient samples, containing integrase K156N) | FC in susceptibility relative to wild-type (NL4-3) ([2]; three of 128 patient samples, containing integrase T97A) | FC in susceptibility ([3]; site-directed mutant E399D in NL4-3 background) | FC in susceptibility ([3]; site-directed mutant N348I and T369I combination in NL4-3 background) | FC in susceptibility ([3]; site-directed mutant N348I in NL4-3 background) | fold change for IC50 ([3]; site-directed mutant T369I in NL4-3 background) | change in resistance on addition of mutation ([4]; E399D mutation, patient 45 or patient 50 background) | change in resistance on addition of mutation ([4]; N348I and T369I mutations, all tested patient backgrounds (patients 45, 50)) |
| --- | --- | --- | --- | --- | --- | --- | --- | --- | --- | --- | --- |
| O=C(NCc1ccc(F)cc1)c1nc(N2CCCCS2(=O)=O)c2cccnc2c1O [L-870,810] | increased resistance | increased susceptibility | reduced susceptibility | < 0.5 | increased FC | – | – | – | – | – | – |
| Cc1cn([C@H]2C[C@H](N=[N+]=[N-])[C@@H](CO)O2)c(=O)[nH]c1=O [AZT] | – | – | – | – | – | < 2 | > 2 | > 2 | > 2 fold | did not significantly increase | increased resistance |
